Measurements reported in PMC4172381 (Bioorganic & medicinal chemistry, 2014).

Tests used:
[1] = biological target: T1, human sEH (Homo sapiens, UniProt P34913); experiment: Fluorescent; assay type: biochemical; conditions: for drop in inhibition compared to compound 6: ratio of IC50 vs compound 6; for reduced inhibition compared to N,N,O-trimethylated oxyoxalamide derivatives: Conclusions, vs trimethylated derivatives (24, 26, 31); for improvement in inhibition in comparison with compound 27: ratio of IC50 vs compound 27
T1 sequence (P34913 1-555): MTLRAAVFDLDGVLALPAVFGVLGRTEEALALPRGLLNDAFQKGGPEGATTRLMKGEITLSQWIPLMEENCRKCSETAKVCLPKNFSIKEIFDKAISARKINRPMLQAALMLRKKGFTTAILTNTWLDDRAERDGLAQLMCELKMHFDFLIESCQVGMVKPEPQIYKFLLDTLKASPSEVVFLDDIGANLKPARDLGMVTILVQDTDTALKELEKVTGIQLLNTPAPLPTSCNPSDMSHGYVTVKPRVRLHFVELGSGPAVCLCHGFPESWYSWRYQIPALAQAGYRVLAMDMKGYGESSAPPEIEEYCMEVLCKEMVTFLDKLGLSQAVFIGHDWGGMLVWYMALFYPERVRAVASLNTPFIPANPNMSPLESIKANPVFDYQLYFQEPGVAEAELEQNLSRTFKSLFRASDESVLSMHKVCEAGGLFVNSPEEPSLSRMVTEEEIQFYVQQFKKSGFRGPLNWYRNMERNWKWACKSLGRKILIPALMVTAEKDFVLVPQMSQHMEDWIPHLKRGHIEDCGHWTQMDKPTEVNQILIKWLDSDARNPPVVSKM

[2] = Water solubility by light scattering; assay type: physicochemical; conditions: vs AUDA

O=C(NCCCc1ccccc1)C(=O)NOCc1ccccc1 [Compound 3, N^1-(Benzyloxy)-N^2-(3-phenylpropyl)oxalamide]
inhibition of human sEH, result in words [1]: not effective for producing inhibition activity

O=C(NOCc1ccccc1)C(=O)NC12CC3CC(CC(C3)C1)C2 [Compound 4, N^1-(Adamant-1-yl)-N^2-(benzyloxy)oxalamide]
inhibition of human sEH, result in words [1]: not effective for producing inhibition activity

O=C(NCC12CC3CC(CC(C3)C1)C2)C(=O)NOCc1ccccc1 [Compound 5, N^1-(Adamant-1-ylmethyl)-N^2-(benzyloxy)oxalamide]
inhibition of human sEH, result in words [1]: moderate inhibition

O=C(NOCc1ccccc1)C(=O)NC1C2CC3CC(C2)CC1C3 (stereo not drawn) [Compound 6, N^1-(Adamant-2-yl)-N^2-(benzyloxy)oxalamide]
inhibition potency lower compared to AUDA ([1]; ratio of IC50 vs AUDA): approximately 15 fold | improvement in inhibition potency compared to compound 5 ([1]; ratio of IC50 vs compound 5): 16 fold

O=C(NOc1ccccc1)C(=O)NC1C2CC3CC(C2)CC1C3 (stereo not drawn) [Compound 7, N^1-(Adamant-2-yl)-N^2-(phenyloxy)oxalamide]
inhibition of human sEH, result in words [1]: no inhibition

O=C(NOCCCc1ccccc1)C(=O)NC1C2CC3CC(C2)CC1C3 (stereo not drawn) [Compound 12, N^1-(Adamant-2-yl)-N^2-(3-phenylpropyloxy)oxalamide]
drop in inhibition compared to compound 6 [1]: approximately 10 fold | better inhibition than compound 11 ([1]; ratio of IC50 vs compound 11): approximately 8 fold

CN(OCc1ccccc1)C(=O)C(=O)NC1C2CC3CC(C2)CC1C3 (stereo not drawn) [Compound 13, N^1-(Adamant-2-yl)-N^2-(benzyloxy)-N^2-methyloxalamide]
drop in inhibition compared to compound 6 [1]: approximately 60 fold

O=C(CNC1C2CC3CC(C2)CC1C3)NOCc1ccccc1 (stereo not drawn) [Compound 16, N-(Benzyloxy)-2-(adamant-2-ylamino)acetamide]
inhibition of human sEH, result in words [1]: no inhibition

CONC(=O)C(=O)Nc1ccc(CNC(=O)C23CC4CC(CC(C4)C2)C3)cc1 [Compound 18, N-(4-(N^2-Methyloxyoxalamido)benzyl)adamantanecarboxamide]
enhancement in inhibition compared to compound 17 ([1]; ratio of IC50 vs compound 17): ≥ 3 fold

CC(C)(C)ONC(=O)C(=O)Nc1ccc(CNC(=O)C23CC4CC(CC(C4)C2)C3)cc1 [Compound 19, N-(4-(N^2-t-Butyloxyoxalamido)benzyl)adamantanecarboxamide]
lowered inhibition compared to compound 18 ([1]; ratio of IC50 vs compound 18): 1.5 fold

CON(C)C(=O)C(=O)Nc1ccc(CNC(=O)C23CC4CC(CC(C4)C2)C3)cc1 [Compound 20, N-(4-(N^2-Methyl-N^2-(methyloxy)oxalamido)benzyl)adamantanecarboxamide]
improved potency compared to O-methyl derivative (18) ([1]; ratio of IC50 vs compound 18): 1.5 fold

CON(C)C(=O)C(=O)N(C)c1ccc(CNC(=O)C23CC4CC(CC(C4)C2)C3)cc1 [Compound 21, N-(4-(N^1-Methyl-N^2-methyl-N^2-(methyloxy)oxalamido)-benzyl)adamantanecarboxamide]
improved potency compared to O-methyl derivative (18) ([1]; ratio of IC50 vs compound 18): 1.5 fold

O=C(NOC1CCCCO1)C(=O)Nc1ccc(CNC(=O)C23CC4CC(CC(C4)C2)C3)cc1 (stereo not drawn) [Compound 22, N-(4-(N^2-(Tetrahydro-2H-pyran-2-yloxy)oxalamido)benzyl) adamantanecarboxamide]
inhibition of human sEH, result in words [1]: complete loss in inhibition

CONC(=O)C(=O)Nc1ccc(CNC(=O)NC23CC4CC(CC(C4)C2)C3)cc1 [Compound 28, 1-(4-(N^2-Methyloxyoxalamido)benzyl)-3-adamantylurea]
reduced inhibition compared to N,N,O-trimethylated oxyoxalamide derivatives [1]: ≤ 10 fold | improvement in inhibition in comparison with compound 27 [1]: 2.5 fold

CON(C)C(=O)C(=O)Nc1ccc(CNC(=O)NC23CC4CC(CC(C4)C2)C3)cc1 [Compound 30, 1-(4-(N^2-Methyl-N^2-(methyloxy)oxalamido)benzyl)-3-adamantylurea]
reduced inhibition compared to N,N,O-trimethylated oxyoxalamide derivatives [1]: ≤ 10 fold | improvement in inhibition in comparison with compound 27 [1]: 3 fold

CON(C)C(=O)C(=O)N(C)c1ccc(CNC(=O)NC23CC4CC(CC(C4)C2)C3)cc1 [Compound 31, 1-(4-(N^1-Methyl-N^2-methyl-N^2-(methyloxy)oxalamido)-benzyl)-3-adamantylurea]
higher solubility in water than AUDA [2]: 10 fold | improvement in inhibition in comparison with compound 27 [1]: 13 fold
